Experimental data taken from US20030013140A1, “Method of detecting ligand or ligand-like low-molecular weight compound” (priority 2000, published 2003).

Assays:
Assay type in all cases: cell-based
[1] = biological target: T1, human G-CSF receptor (BAF/hGCSFR cell line) (Homo sapiens, UniProt Q99062); assay: Cytoproliferative activity of the human G-CSF-dependent cell line BAF/hGCSFR (WST-1/1-methoxy PMS, 450 nm)
T1 construct: expressed in transfected cells; host or cells: BAF/B03 (mouse IL-3-dependent pro-B cell line), vector pIRESpuro
T1 sequence (Q99062 25-836): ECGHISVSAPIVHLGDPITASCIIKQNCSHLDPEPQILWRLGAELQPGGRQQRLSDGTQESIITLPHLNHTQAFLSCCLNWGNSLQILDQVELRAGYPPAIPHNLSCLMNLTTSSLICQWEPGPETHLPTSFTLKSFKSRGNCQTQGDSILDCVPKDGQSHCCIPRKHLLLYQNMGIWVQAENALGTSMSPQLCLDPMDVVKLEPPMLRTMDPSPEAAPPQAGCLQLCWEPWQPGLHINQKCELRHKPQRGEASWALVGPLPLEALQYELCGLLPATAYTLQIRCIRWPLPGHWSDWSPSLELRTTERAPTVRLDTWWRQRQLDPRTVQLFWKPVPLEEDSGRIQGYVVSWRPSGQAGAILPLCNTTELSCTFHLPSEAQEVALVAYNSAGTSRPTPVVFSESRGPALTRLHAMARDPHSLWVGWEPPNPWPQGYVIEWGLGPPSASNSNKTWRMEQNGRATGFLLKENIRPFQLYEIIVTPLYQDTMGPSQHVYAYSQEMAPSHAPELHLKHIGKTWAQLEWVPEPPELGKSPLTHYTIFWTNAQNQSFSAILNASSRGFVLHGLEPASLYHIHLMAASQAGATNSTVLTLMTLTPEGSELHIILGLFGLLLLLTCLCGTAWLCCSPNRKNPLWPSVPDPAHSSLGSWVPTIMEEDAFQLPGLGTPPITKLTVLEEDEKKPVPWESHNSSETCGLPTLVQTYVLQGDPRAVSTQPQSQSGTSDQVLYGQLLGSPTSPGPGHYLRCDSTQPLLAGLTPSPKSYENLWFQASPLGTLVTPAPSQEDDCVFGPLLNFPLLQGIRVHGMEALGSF
Protocol: Upon determining cytoproliferative activity, a cell line transfected with the human G-CSF receptor gene (BAF/hGCSFR) was recovered and, subsequent to its washing with PBS(−), was suspended in DMEM medium ((−)FCS). The cells were prepared at 5×10^4 cells/well on a 96-well plate. To the individual wells, rhG-CSF was added at 0, 0.025, 0.1, 0.4, 1.6 or 6.4 ng/mL, respectively, followed by incubation at 5% CO2 and 37° C. for 48 hours. Subsequent to the incubation, a WST-1/1-methoxy PMS solution (product of Dojindo Laboratories) was added to the individual wells (final concentration: 5 mM), and a staining reaction was then conducted in a CO2 incubator. After the reaction, measurement was conducted at a measurement wavelength of 450 nm.
(§1) With respect to the cell line (BAF/hGCSFR) obtained in Example 1 with the human G-CSF receptor gene introduced therein, effects which may be given to its screening by the existence of a reducing agent (2-mercaptoethanol) was investigated as will be described next. Firstly, two culture media were provided, one being a culture medium obtained by adding 2-mercaptoethanol at 5×10^−5 M to DMEM medium ((−)FCS) and the other consisting solely of DMEM medium ((−)FCS) without incorporation of the additives. […]

[2] = biological target: T2, human IL-10 receptor (BAF/hIL-10R cell line) (Homo sapiens, UniProt Q13651); assay: Cytoproliferative activity of the human IL-10-dependent cell line BAF/hIL-10R (WST-1/1-methoxy PMS, 450 nm); details: 2-mercaptoethanol 5×10^-5 M vs medium alone; marked differences at rhIL-10 10, 100 and 1,000 ng/mL; FIG. 6
T2 construct: expressed in transfected cells; host or cells: BAF/B03 (mouse IL-3-dependent pro-B cell line), vector pIRESpuro
T2 sequence (Q13651 22-578): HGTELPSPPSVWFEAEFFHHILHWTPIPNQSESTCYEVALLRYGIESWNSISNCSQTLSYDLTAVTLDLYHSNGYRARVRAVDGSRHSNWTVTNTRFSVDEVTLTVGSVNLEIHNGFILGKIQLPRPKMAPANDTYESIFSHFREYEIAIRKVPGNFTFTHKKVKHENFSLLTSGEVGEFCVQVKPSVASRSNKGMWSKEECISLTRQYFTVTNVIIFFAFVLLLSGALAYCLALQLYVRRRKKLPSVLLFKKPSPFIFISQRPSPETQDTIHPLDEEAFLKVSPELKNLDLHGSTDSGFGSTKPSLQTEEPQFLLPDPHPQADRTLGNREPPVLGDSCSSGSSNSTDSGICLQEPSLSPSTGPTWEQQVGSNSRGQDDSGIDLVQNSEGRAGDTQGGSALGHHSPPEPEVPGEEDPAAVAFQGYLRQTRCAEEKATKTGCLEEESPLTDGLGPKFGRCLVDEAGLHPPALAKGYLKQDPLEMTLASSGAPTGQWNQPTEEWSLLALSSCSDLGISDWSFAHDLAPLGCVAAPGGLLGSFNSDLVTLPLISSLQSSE
T2 sequence (Q61190 20-349 partner): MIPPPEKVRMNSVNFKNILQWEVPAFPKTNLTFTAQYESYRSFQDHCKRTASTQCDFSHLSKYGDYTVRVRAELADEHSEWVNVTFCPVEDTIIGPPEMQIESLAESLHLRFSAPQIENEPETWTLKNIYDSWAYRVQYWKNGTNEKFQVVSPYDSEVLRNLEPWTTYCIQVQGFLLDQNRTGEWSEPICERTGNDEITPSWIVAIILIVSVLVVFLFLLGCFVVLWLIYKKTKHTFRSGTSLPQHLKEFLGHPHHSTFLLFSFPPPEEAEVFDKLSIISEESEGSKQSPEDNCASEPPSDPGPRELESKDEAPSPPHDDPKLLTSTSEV
Protocol: Upon determining cytoproliferative activity, a cell line transfected with the human IL-10 receptor gene (BAF/hIL-10R) was recovered and, subsequent to its washing with PBS(−), was suspended in DMEM medium ((−)FCS). The cells were prepared at 5×10^4 cells/well on a 96-well plate. To the individual wells, rhIL-10 was added at 0, 0.0001, 0.001, 0.01, 0.1, 1, 10, 100 or 1,000 ng/mL, respectively, followed by incubation at 5% CO2 and 37° C. for 48 hours. Subsequent to the incubation, the WST-1/1-methoxy PMS solution (product of Dojindo Laboratories) was added (final concentration: 5 mM), and a staining reaction was then conducted in a CO2 incubator. After the reaction, measurement was conducted at a measurement wavelength of 450 nm.
as §1, with “line (BAF/hIL-10R)” for “line (BAF/hGCSFR)”, “Example 2” for “Example 1”, “human IL-10” for “human G-CSF”, “without addition” for “without incorporation”, “the reducing agent.” for “the additives.”

[3] = biological target: T3, human EPO receptor (BAF/hEPOR cell line) (Homo sapiens, UniProt P19235); assay: Cytoproliferative activity of the human EPO-dependent cell line BAF/hEPOR (WST-1/1-methoxy PMS, 450 nm); details: 2-mercaptoethanol 5×10^-5 M vs medium alone; FIG. 9
T3 construct: expressed in transfected cells; host or cells: BAF/B03 (mouse IL-3-dependent pro-B cell line), vector pIRESpuro; cDNA from a human erythroid leukemia cell line
T3 sequence (P19235 25-508): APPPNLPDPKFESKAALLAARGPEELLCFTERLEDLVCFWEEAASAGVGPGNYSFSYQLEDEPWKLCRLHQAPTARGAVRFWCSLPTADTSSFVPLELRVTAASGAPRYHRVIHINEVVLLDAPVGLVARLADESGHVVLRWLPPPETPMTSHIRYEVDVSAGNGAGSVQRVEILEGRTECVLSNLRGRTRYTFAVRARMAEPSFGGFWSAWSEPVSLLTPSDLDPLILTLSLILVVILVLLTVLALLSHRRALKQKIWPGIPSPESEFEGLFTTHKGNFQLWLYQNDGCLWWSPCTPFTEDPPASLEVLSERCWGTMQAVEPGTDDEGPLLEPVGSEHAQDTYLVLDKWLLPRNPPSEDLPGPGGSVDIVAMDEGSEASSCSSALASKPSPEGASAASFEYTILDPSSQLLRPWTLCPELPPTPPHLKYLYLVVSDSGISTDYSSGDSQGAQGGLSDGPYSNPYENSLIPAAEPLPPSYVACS
Protocol: Upon determining cytoproliferative activity, a cell line transfected with the human EPO receptor gene (BAF/hEPOR) was recovered and, subsequent to its washing with PBS(−), was suspended in DMEM medium ((−)FCS). The cells were prepared at 5×10^4 cells/well on a 96-well plate. […] Subsequent to the incubation, a WST-1/1-methoxy PMS solution (product of Dojindo Laboratories) was added to the individual wells (final concentration: 5 mM), and a staining reaction was then conducted in a CO2 incubator. After the reaction, measurement was conducted at a measurement wavelength of 450 nm.
With respect to the cell line (BAF/hEPOR) obtained in Example 8 with the human EPO receptor gene introduced therein, effects which may be given to its screening by the existence of a reducing agent (2-mercaptoethanol) was investigated as will be described next. Firstly, two culture media were provided, one being a culture medium obtained by adding 2-mercaptoethanol at 5×10^−5 M to DMEM medium ((−)FCS) and the other consisting solely of DMEM medium ((−)FCS) without addition of the reducing agent. Those culture media were poured into individual wells of 96-well plates, respectively, and BAF/hEPOR which had been washed with PBS(−) was suspended at 5×10^4 cells/well. […]

| SMILES | cytoproliferation of BAF/hG-CSFR in the presence of SB247464 on addition of WEHI sup to the culture medium ([1]; WEHIsup 1.25% with 2-mercaptoethanol 5×10^-5 M vs medium alone, SB247464 0 to 10^-6 M, marked differences at 10^-8, 10^-9 and 10^-10, FIG. 5) | effect of reducing agent on cytoproliferation of BAF/hG-CSFR in the presence of rhG-CSF ([1]; 2-mercaptoethanol 5×10^-5 M vs medium alone, marked differences at rhG-CSF 0.1, 0.4, 1.6 and 6.4 ng/mL, FIG. 3) | effect of reducing agent on cytoproliferation of BAF/hIL-10R in the presence of rhIL-10 [2] | effect of reducing agent on cytoproliferation of BAF/hEPOR in the presence of rhEPO [3] |
| --- | --- | --- | --- | --- |
| c1ccc(C23N=C(Nc4nc5ccccc5[nH]4)NC2(c2ccccn2)NC(Nc2nc4ccccc4[nH]2)=N3)nc1 (stereo not shown) [SB247464, reference compound] | enhanced |  |  |  |
| OCCS [2-mepcaptoethanol, 2-mercaptoethanol] |  | enhanced | enhanced | enhanced |
